In patent US20140303092A1 (CHIMERIX, INC., priority 2011, published 2014):

Experiments:
CMV = experiment: Study HDP-CDV-350: virologic response of refractory CMV infection in HCT recipients; format: in vivo, human (allogeneic HCT recipients); details: for Proportion of subjects with ≧1 log10 last on-treatment reduction or last on-treatment reduction to ≦ LLOQ / Proportion of subjects with ≧1 log10 postbaseline reduction in CMV DNAemia or postbaseline reduction to ≦ LLOQ: LLOQ 100 copies/mL
Method: The virologic responses of 16 allogeneic HCT recipients enrolled and treated with HDP-CDV due to refractory CMV infection or disease and/or intolerance to available anti-CMV medications were evaluated.
All subjects completed a screening assessment (including obtaining written informed consent and, where applicable, assent) prior to initiating treatment with HDP-CDV.
HDP-CDV was given orally twice weekly (BIW); 100 mg BIW for adults or 2 mg/kg BIW for pediatrics. […] Eligible subjects received either a weight-based or fixed dose of HDP-CDV. Pediatric subjects (≦12 years old) received a 4 mg/kg total weekly dose (not-to-exceed 200 mg), as either 2 mg/kg twice-weekly (BIW) or 4 mg/kg once-weekly (QW). Adults and adolescent (13-17 years old) subjects received a 200 mg (not to exceed 4 mg/kg) total weekly dose, as either 100 mg BIW or 200 mg QW. BIW doses were administered at alternating 3- and 4-day intervals and QW doses on the same day each week.
Subjects were treated for an initial period of up to 3 months until either resolution or stabilization of their clinical disease or for 4 weeks following resolution of viral DNAemia, depending on the disease under treatment, whichever was longer. Treatment is extended for up to an additional 3 months, for a total duration of 6 months treatment, depending on the subject's clinical response.
Subjects underwent extensive safety monitoring, including routine safety laboratory assessments, physical examination, and vital sign measurements at regular intervals. In addition, subjects were monitored for viral DNA burden in plasma (DNAemia) and other affected compartments (e.g., urine, stool, CSF, etc.). Assessments were performed weekly for the first month, every 1 or 2 weeks for the next 2 months, and monthly thereafter for as long as treatment was continued. Subjects were monitored for adverse events (AEs) and for selected concomitant medication throughout the entire study, including the 1 month posttreatment follow-up period.

[1] = human, in vivo
Description: ESRD patients not on dialysis have no ability to eliminate the metabolite CDV. As such, specific labeling for ESRD patients not currently on dialysis may not be sought. Furthermore, such subjects are/may be excluded from future studies with HDP-CDV.

CCCCCCCCCCCCCCCCOCCCOP(=O)(O)COC(CO)Cn1ccc(N)nc1=O (stereo not shown) [HDP-CDV]
Maximal reduction in CMV VL from BL, mean (range) (CMV; 16 HCT recipients, 100 mg BIW adults or 2 mg/kg BIW pediatrics): 1.13 (−0.30-2.60) log10 | Mean last on-treatment change from baseline CMV DNAemia (CMV; 16 subjects, qPCR plasma): −0.63 log10 copies/mL | Mean maximal postbaseline change in CMV DNAemia (CMV; 16 subjects, qPCR plasma): −1.13 log10 copies/mL | Change from Baseline CMV DNAemia, Mean (CMV; +1 Month Posttreatment, N 8): −1.00 log10 copies/mL | Change from Baseline CMV DNAemia, Mean (CMV; +1 Week Posttreatment, N 9): −0.63 log10 copies/mL | Proportion of subjects with ≧1 log10 last on-treatment reduction or last on-treatment reduction to ≦ LLOQ (CMV): (62.5%) | Proportion of subjects with ≧1 log10 postbaseline reduction in CMV DNAemia or postbaseline reduction to ≦ LLOQ (CMV): (81.3%) | Change from Baseline CMV DNAemia, Mean (CMV; Month 3, N 7): +0.16 log10 copies/mL | Change from Baseline CMV DNAemia, Mean (CMV; Month 4, N 4): −0.89 log10 copies/mL | Change from Baseline CMV DNAemia, Mean (CMV; Month 5, N 3): −0.84 log10 copies/mL | Change from Baseline CMV DNAemia, Mean (CMV; Month 6, N 3): −0.80 log10 copies/mL | subjects with >1 log10 reduction or ≦LOQ (2 log10) during tx (CMV; Thirteen of 16 subjects): 81% | Change from Baseline CMV DNAemia, Mean (CMV; Week 2, N 16): −0.22 log10 copies/mL | Change from Baseline CMV DNAemia, Mean (CMV; Week 3, N 15): −0.30 log10 copies/mL | Change from Baseline CMV DNAemia, Mean (CMV; Week 4, N 15): −0.52 log10 copies/mL | Change from Baseline CMV DNAemia, Mean (CMV; Week 5, N 14): −0.63 log10 copies/mL | Change from Baseline CMV DNAemia, Mean (CMV; Week 6, N 6): −0.66 log10 copies/mL | Change from Baseline CMV DNAemia, Mean (CMV; Week 7, N 10): −0.16 log10 copies/mL | Change from Baseline CMV DNAemia, Mean (CMV; Week 8, N 3): +0.22 log10 copies/mL | Change from Baseline CMV DNAemia, Mean (CMV; Week 9, N 8): −0.02 log10 copies/mL | Change from Baseline CMV DNAemia, Mean (CMV; Week 10, N 2): +0.11 log10 copies/mL | Change from Baseline CMV DNAemia, Mean (CMV; Week 11, N 9): +0.06 log10 copies/mL | Proportion of subjects with ≧1 log10 last on-treatment reduction or last on-treatment reduction to ≦ LLOQ (CMV; subjects/N): 10/16 | Proportion of subjects with ≧1 log10 postbaseline reduction in CMV DNAemia or postbaseline reduction to ≦ LLOQ (CMV; subjects/N): 13/16 | need for dosage adjustment in renal impairment [1]: no adjustment of HDP-CDV dosage is required
